A short description of data set [1]: Inhalation experiments: local anesthetic effect. In kind it is in vivo. The note with it: inhalation of 0.55 % (w/v) lidocaine base in colloidal tyloxapol/DMPC solution (Example 5); effect undesirable in this context. From the text: Sometimes, but not necessarily, bad taste is accompanied by mucosal irritations caused by the substance. This occurs in various degrees which, in the case of application by inhalation, may range from slight irritation of the pharynx and/or respiratory tract to cough, fits of coughing, bronchoconstrictions and bronchospasms. […] In a further embodiment of the invention, the preparation accordingly contains an active agent which is irritating to the mucosa or causes coughing or bronchoconstrictions. In this connection, active agents from the group of corticoids, betamimetics, anti-cholinergics, anesthetics and antiinfectives are again preferred.
After a sterile filtration, the colloidal solution was filled into pre-sterilized single dose containers (0.5 - 3 ml) of glass and polypropylene.

The format of data set [2] is physicochemical. The protocol:
Buffered aqueous solutions of tyloxapol, DMPC and tyloxapol in a mixture with DMPC were prepared. The saturation solubility of budesonide in these solutions was measured by adding an excess of budesonide and treating the sample with heat and ultrasound and subsequently allowing it to stand for equilibration. The equilibrated samples were filtered through a membrane filter with a pore width of 0.22 µm and the content of budesonide in the filtrate was determined. […]

Data set [3] can be described thus: Colloidal solubilization of the active agent with non-ionic surfactant and lecithin.
[4] abbreviates: Polysorbate 80 0.10 wt.-%, Lipoid S100 1.0 wt.-%, ratio 1:10.
Where [5] appears, read: Polysorbate 80 0.50 wt.-%, Lipoid S100 3.0 wt.-%, ratio 1 : 6.

On to `CCN(CC)CC(=O)Nc1c(C)cccc1C` [lidocaine], for which the “local anesthetic effect of lidocaine” value in data set [1] was “reduced”.

In the case of `CCCC1O[C@@H]2C[C@H]3[C@@H]4CCC5=CC(=O)C=C[C@]5(C)[C@H]4[C@@H](O)C[C@]3(C)[C@]2(C(=O)CO)O1` (stereo partly drawn) [Budesonide, budesonide], in data set [2], the “saturation concentration of budesonide in DMPC solutions” value is “could not be increased”. In addition, the Budesonide solubilized came out at 0.36 mg/mL in data set [3] (setting [4]); 0.43 mg/mL in data set [3] (Polysorbate 80 0.15 wt.-%, Lipoid S100 1.5 wt.-%, ratio 1:10); 0.47 mg/mL in data set [3] (Polysorbate 80 0.25 wt.-%, Lipoid S100 1.5 wt.-%, ratio 1 : 6); 0.50 mg/mL in data set [3] (Polysorbate 80 0.40 wt.-%, Lipoid S100 1.5 wt.-%, ratio 1 : 3.75 (for comparison and/or reference only)); 0.83 mg/mL in data set [3] (Polysorbate 80 0.50 wt.-%, Lipoid S100 2.0 wt.-%, ratio 1:4 (for comparison and/or reference only)); 1.09 mg/mL in data set [3] (setting [5]). Further, the Budesonide solubilized worked out at 0.43 mg/mL in data set [3] (Solutrol HS 15 0.10 wt.-%, Lipoid S100 1.5 wt.-%, ratio 1 : 15); 0.47 mg/mL in data set [3] (Solutrol HS 15 0.25 wt.-%, Lipoid S100 1.5 wt.-%, ratio 1 : 6); 0.48 mg/mL in data set [3] (Solutrol HS 15 0.50 wt.-%, Lipoid S100 1.5 wt.-%, ratio 1 : 3.33 (for comparison and/or reference only)); 0.37 mg/mL in data set [3] (Vitamin E TPGS 0.10 wt.-%, Lipoid S100 1.0 wt.-%, ratio 1 : 10); 0.44 mg/mL in data set [3] (Vitamin E TPGS 0.10 wt.-%, Lipoid S100 1.5 wt.-%, ratio 1 : 15); 0.46 mg/mL in data set [3] (Vitamin E TPGS 0.25 wt.-%, Lipoid S100 1.5 wt.-%, ratio 1 : 6). The Budesonide solubilized is 0.48 mg/mL in data set [3] (Vitamin E TPGS 0.50 wt.-%, Lipoid S100 1.5 wt.-%, ratio 1 : 3.33 (for comparison and/or reference only)); 0.80 mg/mL in data set [3] (Vitamin E TPGS 0.50 wt.-%, Lipoid S100 2.0 wt.-%, ratio 1 : 4 (for comparison and/or reference only)); 1.09 mg/mL in data set [3] (Vitamin E TPGS 0.50 wt.-%, Lipoid S100 3.0 wt.-%, ratio 1 : 6). Also, the “budesonide colloidally solubilized at a concentration of” value in data set [3] (vitamin E TPGS 0.04 wt.-%, polysorbate 80 0.06 wt.-%, lecithin 1.0 wt.-%) is 0.38 mg/mL; in data set [3] (vitamin E TPGS 0.2 wt.-%, polysorbate 80 0.3 wt.-%, lecithin 3.0 wt.-%) it was 0.95 mg/mL.

Consider `CCC(=O)O[C@]1(C(=O)SCF)[C@H](C)C[C@H]2[C@@H]3C[C@H](F)C4=CC(=O)C=C[C@]4(C)[C@@]3(F)[C@@H](O)C[C@@]21C` [Fluticasone prop., fluticasone propionate], for which the Fluticasone prop. solubilized in data set [3] (setting [4]) was 0.07 mg/mL; in data set [3] (setting [5]), 0.18 mg/mL.

Values taken from patent EP1874270B1, “PHARMACEUTICAL AEROSOL COMPOSITION” (priority 2005, dated 2006).
